Data published in article PMC6522941, “Design, synthesis, and anticancer evaluation of novel quinoline derivatives of ursolic acid with hydrazide, oxadiazole, and thiadiazole moieties as potent MEK inhibitors” (Journal of Enzyme Inhibition and Medicinal Chemistry, 2019).

Key:
HeLa cells = assay: MTT cytotoxic assay, HeLa; type: cell-based; details: Homo sapiens, 72 h
Method: (§1) Human breast cancer cell line (MDA-MB-231), cervical carcinoma cell line (HeLa), the liver cancer cell line (SMMC-7721) and normal hepatocyte cell line (QSG-7701) were maintained in Dulbecco Modified Eagle Medium (DMEM) containing 4.0 mM L-Glutamine and 4500 mg/L Glucose supplemented with 10% (v/v) foetal bovine serum (FBS) and 100 U/mL penicillin/streptomycin at 37 °C in humidified atmosphere of 5% CO2 and 95% air.
(§2) Exponentially growing MDA-MB-231, Hela and SMMC-7721 cell lines were seeded into 96-well plate for 100 μL and treated with different concentrations of the synthetic compounds for 72 h, and then 10 μL of MTT (10 mg/mL) was added and incubation for 3 ∼ 4 h at 37 °C. The generated purple formazan crystals from viable can be dissolved by adding 100 μL DMSO. The plates were swirled gently for 5 min and quantified by measuring the OD of the plates at the wavelength of 540 nm. Each concentration was repeated in three wells and the same experimental condition was provided for all compounds. The results were expressed as IC50 values with standard deviations, which was defined as the concentration at which 50% survival of cells was discerned. Etoposide was co-assayed as positive control.
(§3) The in vitro cytotoxic activity of derivatives 3a–d, 4a–h, 5a–h, and 6a–h were evaluated by MTT assay against human breast cancer cell line (MDA-MB-231), cervical carcinoma cell line (HeLa), hepatocarcinoma cell line (SMMC-7721) and human normal hepatocyte cell line (QSG-7701). The anticancer drug etoposide was co-assayed as the positive control. All tested compounds were dissolved in DMSO and the stock solutions were diluted by DMEM medium before treatment of the cultured cells.

QSG-7701 cells = assay: MTT cytotoxic assay, normal hepatocyte QSG-7701; type: cell-based, human; details: for IC50: Homo sapiens, QSG7701, MTT, normal hepatocyte cell line; for Selectivity: IC50 (QSG-7701)/IC50 (HeLa)
Method: as §1, §2, §3

SMMC-7721 cells = assay: MTT cytotoxic assay, SMMC-7721; type: cell-based; details: Homo sapiens, 72 h
Method: as §1, §2, §3

MDA-MB-231 cells = assay: MTT cytotoxic assay, MDA-MB-231; type: cell-based, human; details: Homo sapiens, MDA-MB-231, 72 h
Method: as §1, §2, §3

SMILES	IC50 (HeLa cells)	IC50 (QSG-7701 cells)	Selectivity (QSG-7701 cells)	IC50 (SMMC-7721 cells)	IC50 (MDA-MB-231 cells)
COc1ccc2nc3c(cc2c1)CC1(C)C(CCC2(C)C1CC=C1C4C(C)C(C)CCC4(c4nnc(C)s4)CCC12C)C3(C)C (stereo not drawn) [Compound 6b]	12.8 ± 1.32 µM	> 50 µM	8.5	> 50 µM	15.7 ± 2.01 µM
CCCCc1nnc([C@]23CC[C@@H](C)[C@H](C)C2C2=CCC4[C@@]5(C)Cc6cc7cc(Cl)ccc7nc6C(C)(C)C5CC[C@@]4(C)[C@]2(C)CC3)o1 (stereo partly drawn) [Compound 5h, N-[5′-chloro-ursa-12-en-(2,3)-quinoline-28-oyl]-5-butyl-1,3,4-oxadiazole]	> 50 µM			> 50 µM	> 50 µM
Cc1nnc([C@]23CC[C@@H](C)[C@H](C)C2C2=CCC4[C@@]5(C)Cc6cc7cc(F)ccc7nc6C(C)(C)C5CC[C@@]4(C)[C@]2(C)CC3)o1 (stereo partly drawn) [Compound 5c, N-[5′-fluoro-ursa-12-en-(2,3)-quinoline-28-oyl]-5-methyl-1,3,4-oxadiazole]	33.8 ± 0.95 µM	> 50 µM	3.6	> 50 µM	13.2 ± 0.58 µM
CCCCc1nnc([C@]23CC[C@@H](C)[C@H](C)C2C2=CCC4[C@@]5(C)Cc6cc7cc(OC)ccc7nc6C(C)(C)C5CC[C@@]4(C)[C@]2(C)CC3)o1 (stereo partly drawn) [Compound 5f, N-[5′-methoxy-ursa-12-en-(2,3)-quinoline-28-oyl]-5-butyl-1,3,4-oxadiazole]	30.9 ± 1.14 µM			> 50 µM	> 50 µM
COc1ccc2nc3c(cc2c1)CC1(C)C(CCC2(C)C1CC=C1C4C(C)C(C)CCC4(c4nnc(C)o4)CCC12C)C3(C)C (stereo not drawn) [Compound 5b, N-[5′-methoxy-ursa-12-en-(2,3)-quinoline-28-oyl]-5-methyl-1,3,4-oxadiazole]	16.8 ± 0.34 µM	> 50 µM	5.6	> 50 µM	12.25 ± 0.12 µM
CCCCC(=O)NNC(=O)[C@]12CC[C@@H](C)[C@H](C)C1C1=CCC3[C@@]4(C)Cc5cc6cc(OC)ccc6nc5C(C)(C)C4CC[C@@]3(C)[C@]1(C)CC2 (stereo partly drawn) [Compound 4f, N-[5′-methoxy-ursa-12-en-(2,3)-quinoline-28-oyl]-pentanehydrazide]	> 50 µM			> 50 µM	> 50 µM
Cc1nnc([C@]23CC[C@@H](C)[C@H](C)C2C2=CCC4[C@@]5(C)Cc6cc7ccccc7nc6C(C)(C)C5CC[C@@]4(C)[C@]2(C)CC3)s1 (stereo partly drawn) [Compound 6a]	27.3 ± 1.91 µM	> 50 µM	4.8	> 50 µM	18.8 ± 1.38 µM
COc1cc([C@@H]2c3cc4c(cc3[C@@H](O[C@@H]3O[C@@H]5CO[C@@H](C)O[C@H]5[C@H](O)[C@H]3O)[C@H]3COC(=O)[C@H]23)OCO4)cc(OC)c1O [Etoposide, reference compound]	2.98 ± 0.42 µM	28.8 ± 3.28 µM	9.6	3.48 ± 0.35 µM	5.26 ± 1.21 µM
CCCCC(=O)NNC(=O)[C@]12CC[C@@H](C)[C@H](C)C1C1=CCC3[C@@]4(C)Cc5cc6cc(Cl)ccc6nc5C(C)(C)C4CC[C@@]3(C)[C@]1(C)CC2 (stereo partly drawn) [Compound 4h, N-[5′-chloro-ursa-12-en-(2,3)-quinoline-28-oyl]-pentanehydrazide]	46 ± 0.91 µM			> 50 µM	> 50 µM
CCCCC(=O)NNC(=O)[C@]12CC[C@@H](C)[C@H](C)C1C1=CCC3[C@@]4(C)Cc5cc6ccccc6nc5C(C)(C)C4CC[C@@]3(C)[C@]1(C)CC2 (stereo partly drawn) [Compound 4e, N-[ursa-12-en-(2,3)-quinoline-28-oyl]-pentanehydrazide]	> 50 µM			> 50 µM	> 50 µM
CCCCc1nnc([C@]23CC[C@@H](C)[C@H](C)C2C2=CCC4[C@@]5(C)Cc6cc7cc(OC)ccc7nc6C(C)(C)C5CC[C@@]4(C)[C@]2(C)CC3)s1 (stereo partly drawn) [Compound 6f, N-2-[5′-methoxy-ursa-12-en-(2,3)-quinoline-28-oyl]-5-butyl-1,3,4-thiadiazole]	> 50 µM			> 50 µM	> 50 µM
CCCCc1nnc([C@]23CC[C@@H](C)[C@H](C)C2C2=CCC4[C@@]5(C)Cc6cc7cc(F)ccc7nc6C(C)(C)C5CC[C@@]4(C)[C@]2(C)CC3)o1 (stereo partly drawn) [Compound 5g, N-[5′-fluoro-ursa-12-en-(2,3)-quinoline-28-oyl]-5-butyl-1,3,4-oxadiazole]	> 50 µM			> 50 µM	> 50 µM
C[C@H]1[C@H](C)CC[C@]2(C(=O)O)CC[C@]3(C)C(=CC[C@@H]4[C@@]5(C)CC[C@H](O)C(C)(C)[C@@H]5CC[C@]43C)[C@H]12 [Compound 1, Ursolic acid]	> 50 µM			> 50 µM	> 50 µM
C[C@@H]1CC[C@]2(C(=O)O)CC[C@]3(C)C(=CCC4[C@@]5(C)CCC(=O)C(C)(C)C5CC[C@]43C)C2[C@H]1C (stereo partly drawn) [Compound 2, 3-oxo-ursolic acid]	> 50 µM			> 50 µM	> 50 µM
CCCCC(=O)NNC(=O)[C@]12CC[C@@H](C)[C@H](C)C1C1=CCC3[C@@]4(C)Cc5cc6cc(F)ccc6nc5C(C)(C)C4CC[C@@]3(C)[C@]1(C)CC2 (stereo partly drawn) [Compound 4g, N-[5′-fluoro-ursa-12-en-(2,3)-quinoline-28-oyl]-pentanehydrazide]	> 50 µM			> 50 µM	> 50 µM
CCCCc1nnc([C@]23CC[C@@H](C)[C@H](C)C2C2=CCC4[C@@]5(C)Cc6cc7ccccc7nc6C(C)(C)C5CC[C@@]4(C)[C@]2(C)CC3)o1 (stereo partly drawn) [Compound 5e, N-2-[ursa-12-en-(2,3)-quinoline-28-oyl]-5-butyl-1,3,4-oxadiazole]	> 50 µM			> 50 µM	> 50 µM
CCCCc1nnc([C@]23CC[C@@H](C)[C@H](C)C2C2=CCC4[C@@]5(C)Cc6cc7cc(Cl)ccc7nc6C(C)(C)C5CC[C@@]4(C)[C@]2(C)CC3)s1 (stereo partly drawn) [Compound 6h, N-2-[5′-chloro-ursa-12-en-(2,3)-quinoline-28-oyl]-5-butyl-1,3,4-thiadiazole]	> 50 µM			> 50 µM	> 50 µM
Cc1nnc([C@]23CC[C@@H](C)[C@H](C)C2C2=CCC4[C@@]5(C)Cc6cc7cc(F)ccc7nc6C(C)(C)C5CC[C@@]4(C)[C@]2(C)CC3)s1 (stereo partly drawn) [Compound 6c]	> 50 µM	> 50 µM	2.8	> 50 µM	31.6 ± 2.7 µM
CCCCc1nnc([C@]23CC[C@@H](C)[C@H](C)C2C2=CCC4[C@@]5(C)Cc6cc7ccccc7nc6C(C)(C)C5CC[C@@]4(C)[C@]2(C)CC3)s1 (stereo partly drawn) [Compound 6e, N-2-[ursa-12-en-(2,3)-quinoline-28-oyl]-5-butyl-1,3,4-thiadiazole]	> 50 µM			> 50 µM	> 50 µM
